1 compound from article PMC6934184, “Selective DNA-PKcs inhibition extends the therapeutic index of localized radiotherapy and chemotherapy” (The Journal of Clinical Investigation, 2019) can be followed below.

Each structure is given as a SMILES string.

This assay deals with T1, MAPK12 (p38 gamma) (Homo sapiens, UniProt P53778).
T1 construct: purchased Thermo Fisher Scientific (Life Technologies) SelectScreen
Kind of assay: SelectScreen Z'LYTE. The format is biochemical. Summed up:
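Percent values come from Thermo SelectScreen profiling of NU5455, combining activity and binding assays. CSF1R was run in Z'LYTE format at Km app ATP, and CAMK1 in Adapta format with ATP listed at 10.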

T1 sequence (P53778 whole entry): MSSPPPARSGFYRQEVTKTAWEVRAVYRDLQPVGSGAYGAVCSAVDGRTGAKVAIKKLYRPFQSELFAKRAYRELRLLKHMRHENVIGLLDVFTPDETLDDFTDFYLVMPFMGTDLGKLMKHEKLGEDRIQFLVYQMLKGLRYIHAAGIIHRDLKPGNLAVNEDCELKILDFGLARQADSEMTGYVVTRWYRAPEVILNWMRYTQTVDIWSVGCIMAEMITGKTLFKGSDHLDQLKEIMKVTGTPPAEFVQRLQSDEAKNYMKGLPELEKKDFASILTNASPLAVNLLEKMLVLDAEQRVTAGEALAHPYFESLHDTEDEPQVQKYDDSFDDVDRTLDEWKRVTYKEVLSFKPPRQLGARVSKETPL

As to `CN(C(=O)CN1CCOCC1)c1ccc2sc3c(-c4cccc5c(=O)cc(N6CC7CCC(C6)O7)oc45)cccc3c2c1` [NU5455], the inhibition at 1 µM was -0.8%.
